Test results taken from US8916593B2, “Alkoxy-substituted 2-aminopyridines as ALK inhibitors” (Pfizer Inc., priority 2010, dated 2014).

Tests used:
[1] = target: T1, human recombinant wild-type ALK kinase domain (amino acids 1093-1411) (Homo sapiens, UniProt Q9UM73); assay: ALK enzyme assay 2 (microfluidic mobility shift assay); type: biochemical;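 further: kinase reaction run 1 h at room temperature, conversion quantified by electrophoretic separation of fluorescent peptide substrate from phosphorylated product, about 15-20% turnover without inhibitor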
T1 construct: ALK kinase domain (amino acids 1093-1411); made in house
T1 sequence (Q9UM73 1093-1411): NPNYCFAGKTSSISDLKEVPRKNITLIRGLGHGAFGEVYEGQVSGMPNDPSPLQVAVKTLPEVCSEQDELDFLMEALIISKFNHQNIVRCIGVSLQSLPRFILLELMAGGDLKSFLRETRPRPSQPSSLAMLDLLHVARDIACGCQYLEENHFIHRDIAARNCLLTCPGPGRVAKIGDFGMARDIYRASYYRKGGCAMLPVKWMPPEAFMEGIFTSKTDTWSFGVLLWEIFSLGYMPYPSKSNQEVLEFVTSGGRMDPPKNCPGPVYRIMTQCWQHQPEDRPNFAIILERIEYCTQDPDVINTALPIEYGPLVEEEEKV
Experimental: The reactions were incubated for 1 h at room temperature, stopped by the addition of 0.1 M EDTA, pH 8, and the extent of reactions (˜15-20% conversion with no inhibitor) was determined after electrophoretic separation of the fluorescently labeled peptide substrate and phosphorylated product on an LabChip EZ Reader II (Caliper Life Sciences, Hopkinton, Mass.).

[2] = target: EML4-ALK wt v1 in NIH-3T3 cells (Homo sapiens, UniProt Q9UM73)
Chain of EML4-ALK wt v1 in NIH-3T3 cells (Q9UM73 with tags, fused parts or gaps): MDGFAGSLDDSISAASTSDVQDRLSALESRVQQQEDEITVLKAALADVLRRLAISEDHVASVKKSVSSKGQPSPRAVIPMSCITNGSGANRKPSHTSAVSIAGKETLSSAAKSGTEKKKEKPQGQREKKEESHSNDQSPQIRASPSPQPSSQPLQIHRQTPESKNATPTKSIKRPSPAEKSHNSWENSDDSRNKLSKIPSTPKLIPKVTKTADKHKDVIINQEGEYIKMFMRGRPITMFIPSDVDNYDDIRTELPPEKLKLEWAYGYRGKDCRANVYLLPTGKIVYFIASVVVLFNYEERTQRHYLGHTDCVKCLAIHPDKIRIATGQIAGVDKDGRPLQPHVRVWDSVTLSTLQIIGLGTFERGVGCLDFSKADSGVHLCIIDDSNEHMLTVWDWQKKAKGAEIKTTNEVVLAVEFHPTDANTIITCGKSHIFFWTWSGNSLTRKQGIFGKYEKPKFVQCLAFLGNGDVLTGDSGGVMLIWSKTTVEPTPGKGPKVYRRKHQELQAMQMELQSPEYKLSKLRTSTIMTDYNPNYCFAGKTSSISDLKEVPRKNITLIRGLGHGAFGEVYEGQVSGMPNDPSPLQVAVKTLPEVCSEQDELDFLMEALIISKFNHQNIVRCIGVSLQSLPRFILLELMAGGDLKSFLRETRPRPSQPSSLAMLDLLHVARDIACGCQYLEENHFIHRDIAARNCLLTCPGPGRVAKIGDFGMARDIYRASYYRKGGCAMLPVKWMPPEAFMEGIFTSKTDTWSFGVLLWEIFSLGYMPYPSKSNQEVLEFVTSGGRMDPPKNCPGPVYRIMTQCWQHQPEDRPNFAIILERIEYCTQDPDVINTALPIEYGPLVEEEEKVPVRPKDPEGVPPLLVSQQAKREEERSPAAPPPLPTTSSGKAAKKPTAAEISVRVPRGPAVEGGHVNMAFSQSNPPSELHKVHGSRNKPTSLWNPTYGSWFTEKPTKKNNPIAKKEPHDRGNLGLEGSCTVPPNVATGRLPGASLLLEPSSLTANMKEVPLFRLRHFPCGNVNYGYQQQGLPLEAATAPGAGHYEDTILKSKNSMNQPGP

| SMILES | Ki [1] [nM] | IC50 [2] [nM] |
| --- | --- | --- |
| Cc1n[nH]c(C)c1-c1cnc(N)c(O[C@H](C)c2cc(F)ccc2F)c1 [Example 48, 3-[(1R)-(2,5-difluorophenyl)-ethoxy]-5-(3,5-dimethyl-1H-pyrazol-4-yl)pyridin-2-amine] | 1.56 | – |
| CC(Oc1cc(-c2ccnn2C)cnc1N)c1cc(F)ccc1-c1nccn1C (centres unmarked) [Example 63, 3-{1-[5-Fluoro-2-(1-methyl-1H-imidazol-2-yl)-phenyl]ethoxy}-5-(2-methyl-2H-pyrazol-3-yl)-pyridin-2-ylamine] | 67 | 2350 |
| C[C@@H](Oc1nc(-c2ccc(C(N)=O)nc2)cnc1N)c1cc(F)ccc1-n1nccn1 [Example 64, 5-(5-amino-6-{(1R)-1-[5-fluoro-2-(2H-1,2,3-triazol-2-yl)phenyl]ethoxy}pyrazin-2-yl)pyridine-2-carboxamide] | 2.4 | 123 |
| Cc1n[nH]cc1-c1cnc(N)c(OC(C)c2cc(F)ccc2N2CCCC2=O)n1 (centres unmarked) [Example 65, 1-[2-(1-{[3-amino-6-(3-methyl-1H-pyrazol-4-yl)pyrazin-2-yl]oxy}ethyl)-4-fluorophenyl]pyrroli-din-2-one] | 5.1 | 193 |
| Cc1n[nH]cc1-c1cnc(N)c(O[C@H](C)c2cc(F)ccc2-n2nccn2)n1 [Example 67, 3-{(1R)-1-[5-fluoro-2-(2H-1,2,3-triazol-2-yl)phenyl]ethoxy}-5-(3-methyl-1H-pyrazol-4-yl)pyrazin-2-amine] | 0.56 | 40.9 |
| COc1ccc(F)cc1[C@@H](C)Oc1nc(-c2ccc([C@H](C)N)cc2)cnc1N [Example 68, 5-{4-[(1S)-1-aminoethyl]phenyl}-3-[(1R)-1-(5-fluoro-2-methoxyphenyl)eth-oxy]pyrazin-2-amine] | < 0.2 | 4.5 |
| COc1ncccc1-c1cnc(N)c(OC(C)c2cc(F)ccc2N2CCCC2=O)n1 (centres unmarked) [Example 69, 1-[2-(1-{[3-amino-6-(2-methoxypyridin-3-yl)pyrazin-2-yl]oxy}ethyl)-4-fluorophenyl]pyrroli-din-2-one] | 1.1 | 52.6 |
| C[C@@H](Oc1nc(-c2ccnc(N3CCN(C)CC3)c2)cnc1N)c1cc(F)ccc1-n1nccn1 [Example 70, 3-{(1R)-1-[5-fluoro-2-(2H-1,2,3-triazol-2-yl)phenyl]ethoxy}-5-[2-(4-methylpiperazin-1-yl)pyridin-4-yl]pyrazin-2-amine] | < 0.2 | 5.48 |
| C[C@@H](Oc1nc(-c2cnn(C3CCNCC3)c2)cnc1N)c1cc(F)ccc1-n1nccn1 [Example 71, 3-{(1R)-1-[5-fluoro-2-(2H-1,2,3-triazol-2-yl)phenyl]ethoxy}-5-[1-(piperidin-4-yl)-1H-pyrazol-4-yl]pyrazin-2-amine] | < 0.2 | 30.3 |
| C[C@@H](Oc1nc(-c2cccc(S(C)(=O)=O)c2)cnc1N)c1cc(F)ccc1-n1nccn1 [Example 72, 3-{(1R)-1-[5-fluoro-2-(2H-1,2,3-triazol-2-yl)phenyl]ethoxy}-5-[3-(methylsulfonyl)phen-yl]pyrazin-2-amine] | 0.24 | 10.4 |
| C[C@@H](Oc1cc(-c2ccnc(N3CCN(C)CC3)c2)cnc1N)c1cc(F)ccc1-n1nccn1 [Example 73, 5-{(1R)-1-[5-fluoro-2-(2H-1,2,3-triazol-2-yl)phenyl]ethoxy}-2′-(4-methylpiperazin-1-yl)-3,4′-bipyridin-6-amine] | < 0.2 | 6.73 |
| C[C@@H](Oc1cc(-c2cnn(C3CCNCC3F)c2)cnc1N)c1cc(F)ccc1-n1nccn1 (stereo partly drawn) [Example 74, 5-[1-(3-fluoropiperidin-4-yl)-1H-pyrazol-4-yl]-3-{(1R)-1-[5-fluoro-2-(2H-1,2,3-triazol-2-yl)phenyl]ethoxy} pyridin-2-amine] | < 0.2 | 6.77 |
| C[C@@H](Oc1cc(-c2cnc3c(c2)C(C)(C)C(=O)N3)cnc1N)c1cc(F)ccc1-n1nccn1 [Example 75, 5-(6-amino-5-{(1R)-1-[5-fluoro-2-(2H-1,2,3-triazol-2-yl)phenyl]ethoxy}pyridin-3-yl)-3,3-dimethyl-1,3-dihydro-2H-pyrrolo[2,3-b]pyridin-2-one] | 0.341 | 24.6 |
| CC(C)n1cc(-c2cnc(N)c(O[C@H](C)c3cc(F)ccc3-n3nccn3)c2)cn1 [Example 76, 3-{(1R)-1-[5-fluoro-2-(2H-1,2,3-triazol-2-yl)phenyl]ethoxy}-5-[1-(propan-2-yl)-1H-pyrazol-4-yl]pyridin-2-amine] | 0.216 | 25.5 |
| CC(O)Cn1cc(-c2cnc(N)c(O[C@H](C)c3cc(F)ccc3-n3nccn3)c2)cn1 (stereo partly drawn) [Example 77, 1-[4-(6-amino-5-{(1R)-1-[5-fluoro-2-(2H-1,2,3-triazol-2-yl)phenyl]ethoxy}pyridin-3-yl)-1H-pyrazol-1-yl]propan-2-ol] | 0.2 | 15.3 |
| CC1CNc2ncc(-c3cnc(N)c(O[C@H](C)c4cc(F)ccc4-n4nccn4)c3)cc2O1 (stereo partly drawn) [Example 79, 3-{(1R)-1-[5-fluoro-2-(2H-1,2,3-triazol-2-yl)phenyl]ethoxy}-5-(2-methyl-3,4-dihydro-2H-pyrido[3,2-b][1,4]oxazin-7-yl)pyridin-2-amine] | < 0.2 | 15.5 |
| C[C@@H](Oc1cc(-c2cnn(C3CCNCC3)c2)cnc1N)c1cc(F)ccc1-n1nccn1 [Example 80, 3-{(1R)-1-[5-fluoro-2-(2H-1,2,3-triazol-2-yl)phenyl]ethoxy}-5-[1-(piperidin-4-yl)-1H-pyrazol-4-yl]pyridin-2-amine] | < 0.2 | 6.58 |
| C[C@@H](Oc1cc(-c2cnn(C3CCNC3)c2)cnc1N)c1cc(F)ccc1-n1nccn1 (stereo partly drawn) [Example 81, 3-{(1R)-1-[5-fluoro-2-(2H-1,2,3-triazol-2-yl)phenyl]ethoxy}-5-[1-(pyrrolidin-3-yl)-1H-pyrazol-4-yl]pyridin-2-amine] | < 0.2 | 9.9 |
| CCn1cc(-c2cnc(N)c(O[C@H](C)c3cc(F)ccc3-n3nccn3)c2)ccc1=O [Example 82, 6′-amino-1-ethyl-5′-{(1R)-1-[5-fluoro-2-(2H-1,2,3-triazol-2-yl)phenyl]ethoxy}-3,3′-bipyridin-6(1H)-one] | < 0.2 | 75.3 |
| Cc1nn(CC#N)c(C)c1-c1cnc(N)c(O[C@H](C)c2cc(F)ccc2-n2nccn2)c1 [Example 84, [4-(6-amino-5-{(1R)-1-[5-fluoro-2-(2H-1,2,3-triazol-2-yl)phenyl]ethoxy}pyridin-3-yl)-3,5-dimethyl-1H-pyrazol-1-yl]acetonitrile] | < 0.2 | 13.2 |
| C[C@@H](Oc1cc(-c2cccc3c2CNC3=O)cnc1N)c1cc(F)ccc1-n1nccn1 [Example 85, 4-(6-Amino-5-((R)-1-(5-fluoro-2-(2H-1,2,3-triazol-2-yl)phenyl)ethoxy)pyridin-3-yl)isoindolin-1-one] | 0.37 | 6.81 |
| C[C@@H](Oc1cc(-c2cccc(CS(C)(=O)=O)c2)cnc1N)c1cc(F)ccc1-n1nccn1 [Example 87, 3-{(1R)-1-[5-fluoro-2-(2H-1,2,3-triazol-2-yl)phenyl]ethoxy}-5-{3-[(methylsulfonyl)methyl]phenyl}pyridin-2-amine] | < 0.2 | 4.14 |
| COCc1ccc(-c2cnc(N)c(OC(C)c3cc(F)ccc3OC)c2)cc1S(C)(=O)=O (centres unmarked) [Example 135, 3-[1-(5-fluoro-2-methoxyphenyl)ethoxy]-5-[4-(methoxymethyl)-3-(methylsulfonyl)phenyl]pyridin-2-amine] | – | 4.15 |
